Measurements taken from US5985885A, “Quinazoline-4-amino-2-(piperidine-1-yl-4-substituted) derivatives having antihypertensive activity, a method for their preparation and their pharmaceutical use” (priority 1996, dated 1999).
Read-outs that look alike come from different tables or passages of the source.

Key:
[1] = target: alpha1A + alpha1C adrenergic receptor (human prostate); assay: [3H]-prazosin binding in human prostate; conditions: alpha1A + alpha1C subtype, pH 7.5, 30 min, 25° C., read-out: Inhibition of the binding of [3H]-prazosin IC50
[2] = target: T1, alpha1B adrenergic receptor (rat liver) (Rattus norvegicus, UniProt P15823); assay: [3H]-prazosin binding in rat liver
T1 sequence (P15823 1-515): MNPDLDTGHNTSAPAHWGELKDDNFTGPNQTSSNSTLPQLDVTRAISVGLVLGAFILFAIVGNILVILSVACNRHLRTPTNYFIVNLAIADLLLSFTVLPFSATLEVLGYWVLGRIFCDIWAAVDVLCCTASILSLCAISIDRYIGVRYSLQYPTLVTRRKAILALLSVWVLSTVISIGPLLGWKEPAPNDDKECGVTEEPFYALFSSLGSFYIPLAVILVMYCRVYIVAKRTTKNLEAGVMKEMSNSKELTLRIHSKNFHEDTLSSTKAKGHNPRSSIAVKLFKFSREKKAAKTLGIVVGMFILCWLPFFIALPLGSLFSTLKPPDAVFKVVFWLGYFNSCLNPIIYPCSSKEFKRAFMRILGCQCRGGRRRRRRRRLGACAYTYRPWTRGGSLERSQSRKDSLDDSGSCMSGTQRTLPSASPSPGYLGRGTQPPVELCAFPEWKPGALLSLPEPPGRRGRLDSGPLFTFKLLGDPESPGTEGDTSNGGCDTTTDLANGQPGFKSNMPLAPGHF

[3] = tested on: spontaneously hypertensive (SHR) rat; assay: Anti-hypertensive activity in the spontaneously hypertensive (SHR) rat (oral); type: in vivo
From the text: Animals having a mean basal systolic pressure of not less than 180 mmHg were used.

[4] = tested on: anaesthetised normotensive rat; assay: Hypotensive activity in the anaesthetised normotensive rat (IV); type: in vivo; conditions: for ED30: Rattus norvegicus, read-out: Reduction in mean arterial pressure ED30
Method: In order to evaluate the in vivo activity, some of the compounds of the invention were administered (IV) in bolus form to the normotensive rat anaesthetised with urethane plus ketamine. The compounds were administered in at least three doses in experiments performed in duplicate so as to enable the calculation of ED30 values, that is, the dose in mg/kg that reduces the mean basal arterial pressure by 30%. The compounds of the invention, and several reference standards, were dissolved in dilute hydrochloric acid at a physiologically acceptable pH, and physiological solution was administered in a volume of 3 ml/kg. Evaluations were made at two time periods, that is, the intervals 0-30 min and 30-60 min after administration.

[5] = target: T2, 5-HT2 receptors (isolated rabbit aorta) (Oryctolagus cuniculus, UniProt G1SYA7); assay: Antagonism of serotonin-induced contraction of isolated rabbit aorta; conditions: for IC50: isolated rabbit aorta, 37° C., compound 10 min before agonist, limits (p < 0.05)
T2 construct: Four rings formed from rabbit aorta were joined together to form a chain; from tissue; host or cells: isolated rabbit aorta rings
Method: The antagonist activity of some of the compounds of the invention on the contractile activity of seratonin on isolated rabbit aorta, effected principally by way of the 5-HT2 receptors, is reported here by way of example. The method of Feniuk et al [Br. J. Pharmacol. (1985), 86, 697-704] was used, with slight modifications. Four rings formed from rabbit aorta were joined together to form a chain; the preparation was placed in an isolated organ bath in the presence of Krebs at 37° C. and attached to an isometric transducer, a tension of 2 g being applied and oxygenation was carried out continuously with O2 --CO2 (95-5 v/v). A seratonin concentration(0.3 μM) was used that was capable of causing sub-maximal contraction of the preparation. […] The results obtained in this way are given in Table 4 below which, for several of the compounds of the invention gives IC50 values calculated by the regression method on a set of at least 2 experiments at 5 different concentrations for each of the compounds examined, these being compared with values obtained for several reference compounds.

[6] = target: T3, alpha1A adrenergic receptor (rat GSM) (Rattus norvegicus, UniProt P43140); assay: [3H]-prazosin binding in rat submaxillary glands (GSM); conditions: alpha1A subtype, pH 7.4, 45 min, 25° C., read-out: Inhibition of the binding of [3H]-prazosin IC50
T3 sequence (P43140 1-466): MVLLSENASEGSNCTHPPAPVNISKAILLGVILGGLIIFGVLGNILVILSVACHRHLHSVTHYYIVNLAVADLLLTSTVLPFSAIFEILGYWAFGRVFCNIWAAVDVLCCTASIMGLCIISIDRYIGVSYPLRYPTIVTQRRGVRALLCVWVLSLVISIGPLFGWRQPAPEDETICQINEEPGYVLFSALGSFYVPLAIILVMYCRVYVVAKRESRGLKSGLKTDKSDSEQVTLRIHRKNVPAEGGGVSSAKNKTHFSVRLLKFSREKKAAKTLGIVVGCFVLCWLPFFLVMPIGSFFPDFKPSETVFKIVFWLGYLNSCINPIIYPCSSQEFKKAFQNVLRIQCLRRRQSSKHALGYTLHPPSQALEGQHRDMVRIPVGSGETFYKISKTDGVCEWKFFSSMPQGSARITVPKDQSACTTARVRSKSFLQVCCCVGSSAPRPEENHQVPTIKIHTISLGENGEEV

[7] = tested on: alpha1A, alpha1B and alpha1C adrenergic receptor subtypes; assay: [3H]-prazosin binding, alpha1 subtypes together (Table 3 overall); conditions: reference compounds versus compounds of the invention/prazosin
[8] = 0.5 h, IV bolus, interval 0-30 min
[9] = 1 h, IV bolus, interval 30-60 min

T2 sequence (G1SYA7 1-469): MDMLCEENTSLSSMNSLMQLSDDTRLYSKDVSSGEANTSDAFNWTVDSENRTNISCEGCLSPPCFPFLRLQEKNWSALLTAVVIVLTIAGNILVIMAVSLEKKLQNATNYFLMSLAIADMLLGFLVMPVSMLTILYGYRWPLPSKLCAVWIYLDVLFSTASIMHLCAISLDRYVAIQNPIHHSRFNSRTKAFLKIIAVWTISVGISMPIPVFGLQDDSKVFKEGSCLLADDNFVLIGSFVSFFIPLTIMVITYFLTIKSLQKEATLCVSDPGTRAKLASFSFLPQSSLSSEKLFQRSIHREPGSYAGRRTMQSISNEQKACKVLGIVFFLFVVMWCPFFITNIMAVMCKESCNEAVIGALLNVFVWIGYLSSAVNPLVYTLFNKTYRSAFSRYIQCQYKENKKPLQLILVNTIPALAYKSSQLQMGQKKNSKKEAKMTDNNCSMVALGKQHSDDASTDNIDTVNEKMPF

Row | Compound | IC50 [1] [nM] | IC50 [2] [nM] | Cardiac frequency, max effect at 3 mg/kg [3] | Systolic pressure, max effect at 3 mg/kg [3] [% vs basal] | ED30 [4, 8] [mg/kg] | ED30 [4, 9] [mg/kg] | IC50 [5] [nM] | IC50 [6] [nM] | anti-hypertensive action (in words) [3] | ED20 ([3]; Rattus norvegicus, 2 h, 0-120 min, NC: not calculable, read-out: Systolic pressure ED20 (0-120 min)) [mg/kg] | IC50 ([2]; read-out: Inhibition of the binding of [3H]-prazosin IC50, rat liver, alpha1B subtype) [nM] | IC50 ([5]; read-out: Inhibitory effect (IC50) on the contraction caused by 0.3 μM serotonin) [nM] | Systolic pressure ED20 (0-120 min) ([3]; 0-120 min, NC: not calculable) | hypotensive activity compared with prazosin/compounds (in words) ([4]; IV bolus) | ED30 ([4]; iv, 0.5 h) [mg/kg] | ED30 ([4]; iv, 1 h) [mg/kg] | 5-HT2-antagonist activity (in words) ([5]; rabbit aorta) | times less powerful (on average) [7] [times]
1 | COc1cc2nc(N3CCC(c4ccccc4)CC3)nc(N)c2cc1OC [Compound 1] | 2 | 13 | -0.8 % vs basal | -7.5 | 0.19 | 0.31 | 16500 | 6.1 | – | – | – | – | – | – | – | – | – | –
2 | COc1cc2nc(N3CCC(c4cc5ccccc5o4)CC3)nc(N)c2cc1OC [Compound 8] | 20 | 5.2 | -5.2 % vs basal | -20.2 | 0.07 | 0.09 | 16600 | 18.4 | about as powerful as prazosin | 2.6 | – | – | – | – | – | – | – | –
3 | COc1cc2nc(N3CCC(c4cccs4)CC3)nc(N)c2cc1OC [Compound 6] | 4.5 | 6 | +2.7 % vs basal | -8.4 | 0.06 | 0.08 | 88300 | 4.1 | – | – | – | – | – | – | – | – | – | –
4 | CCOc1ccccc1C1CCN(c2nc(N)c3cc(OC)c(OC)cc3n2)CC1 [Compound 3] | 10.8 | – | – | – | 0.32 | 0.35 | – | 10.7 | – | – | 14 | 73400 | – | – | – | – | – | –
5 | COc1cccc(OC)c1OCCNCC1COc2ccccc2O1 (stereo not shown) [WB-4101, reference compound] | – | – | -5.7 % vs basal | -2.6 | – | – | > 145000 | 16.5 | inactive | – | – | – | INACTIVE | less active | 0.13 | 0.29 | inactive until higher doses (50 μg/ml) | 10 to 30
